# Measurements: ChEMBL document CHEMBL1201862, “PubChem BioAssay data set” (2004)
#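 1) Cells in 96-well plates. 2) Compound, 48 h, 5 concentrations. 3) Linear interpolation between surrounding doses. 4) Unreached endpoint = highest concentration. GI50 marks 50% less growth.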 Active and inactive are the calls of the source. Cut-off read from the data, not from the text of the source: active = GI50 up to about 1.1 µM and inactive = higher.
# Assays:
# Assay in all cases: NCI-60 cell line screen, 48 h
# UACC-62 = system: UACC-62
# SF-268 = system: SF-268
# M14 = system: M14
# LXFL 529 = system: LXFL 529
# SK-MEL-28 = system: SK-MEL-28
# SK-MEL-2 = system: SK-MEL-2
# LOX IMVI = system: LOX IMVI
# NCI-H23 = system: NCI-H23
# SN12C = system: SN12C
# KM-20L2 = system: KM-20L2
# HCC 2998 = system: HCC 2998
# OVCAR-5 = system: OVCAR-5
# CAKI-1 = system: CAKI-1
# HOP-62 = system: HOP-62
# HOP-18 = system: HOP-18
# SR = system: SR
# KM12 = system: KM12
# HCT-116 = system: HCT-116
# SF-295 = system: SF-295
# CCRF-CEM = system: CCRF-CEM
# RPMI-8226 = system: RPMI-8226
# UACC-257 = system: UACC-257
# HL-60 = system: HL-60
# SNB-75 = system: SNB-75
# M19-MEL = system: M19-MEL
# ACHN = system: ACHN
# U-251 = system: U-251
# IGROV-1 = system: IGROV-1
# K562 = system: K562
# RXF 393 = system: RXF 393
# OVCAR-4 = system: OVCAR-4
# SNB-78 = system: SNB-78
# NCI-H522 = system: NCI-H522
# SNB-19 = system: SNB-19
# UO-31 = system: UO-31
# HCT-15 = system: HCT-15
# SF-539 = system: SF-539
# A498 = system: A498
# SK-MEL-5 = system: SK-MEL-5
# HOP-92 = system: HOP-92
# DMS-114 = system: DMS-114
# DLD-1 = system: DLD-1
# OVCAR-8 = system: OVCAR-8
# COLO 205 = system: COLO 205
# SW-620 = system: SW-620
# A549 = system: A549
# MOLT-4 = system: MOLT-4
# HT-29 = system: HT-29
# DMS-273 = system: DMS-273
# NCI-H460 = system: NCI-H460
# TK-10 = system: TK-10
# NCI-H226 = system: NCI-H226
# Malme-3M = system: Malme-3M
# OVCAR-3 = system: OVCAR-3
# 786-0 = system: 786-0
# EKVX = system: EKVX
structure (smiles),measurement,setting,value
O=[N+]([O-])CCc1cccc([N+](=O)[O-])c1,GI50,UACC-62,> 100 µM (inactive)
same,GI50,SF-268,> 100 µM (inactive)
same,GI50,M14,> 100 µM (inactive)
same,GI50,LXFL 529,> 100 µM (inactive)
same,GI50,SK-MEL-28,> 100 µM (inactive)
same,GI50,SK-MEL-2,> 100 µM (inactive)
same,GI50,LOX IMVI,> 100 µM (inactive)
same,GI50,NCI-H23,> 100 µM (inactive)
same,GI50,SN12C,> 100 µM (inactive)
same,GI50,KM-20L2,> 100 µM (inactive)
same,GI50,HCC 2998,> 100 µM (inactive)
same,GI50,OVCAR-5,> 100 µM (inactive)
same,GI50,CAKI-1,> 100 µM (inactive)
same,GI50,HOP-62,> 100 µM (inactive)
same,GI50,HOP-18,> 100 µM (inactive)
same,GI50,SR,> 100 µM (inactive)
same,GI50,KM12,> 100 µM (inactive)
same,GI50,HCT-116,> 100 µM (inactive)
same,GI50,SF-295,> 100 µM (inactive)
same,GI50,CCRF-CEM,> 100 µM (inactive)
same,GI50,RPMI-8226,> 100 µM (inactive)
same,GI50,UACC-257,> 100 µM (inactive)
same,GI50,HL-60,> 100 µM (inactive)
same,GI50,SNB-75,> 100 µM (inactive)
same,GI50,M19-MEL,> 100 µM (inactive)
same,GI50,ACHN,> 100 µM (inactive)
same,GI50,U-251,> 100 µM (inactive)
same,GI50,IGROV-1,> 100 µM (inactive)
same,GI50,K562,> 100 µM (inactive)
same,GI50,RXF 393,> 100 µM (inactive)
same,GI50,OVCAR-4,> 100 µM (inactive)
same,GI50,SNB-78,> 100 µM (inactive)
same,GI50,NCI-H522,> 100 µM (inactive)
same,GI50,SNB-19,> 100 µM (inactive)
same,GI50,UO-31,> 100 µM (inactive)
same,GI50,HCT-15,> 100 µM
same,GI50,SF-539,> 100 µM (inactive)
same,GI50,A498,> 100 µM (inactive)
same,GI50,SK-MEL-5,> 100 µM (inactive)
same,GI50,HOP-92,> 100 µM (inactive)
same,GI50,DMS-114,> 100 µM (inactive)
same,GI50,DLD-1,> 100 µM (inactive)
same,GI50,OVCAR-8,> 100 µM (inactive)
same,GI50,COLO 205,> 100 µM (inactive)
same,GI50,SW-620,9.44 µM (inactive)
same,GI50,A549,> 100 µM (inactive)
same,GI50,MOLT-4,> 100 µM (inactive)
same,GI50,HT-29,> 100 µM (inactive)
same,GI50,DMS-273,> 100 µM (inactive)
same,GI50,NCI-H460,> 100 µM (inactive)
same,GI50,TK-10,> 100 µM (inactive)
same,GI50,NCI-H226,> 100 µM (inactive)
same,GI50,Malme-3M,> 100 µM (inactive)
same,GI50,OVCAR-3,> 100 µM (inactive)
same,GI50,786-0,> 100 µM (inactive)
same,GI50,EKVX,> 100 µM (inactive)
